Reference: article PMC6468590, “Novel Flavivirus Antiviral That Targets the Host Nuclear Transport Importin α/β1 Heterodimer” (Cells, 2019)

Target: T1, IMPα2 (importin α, IMPα) (Mus musculus, UniProt P52293)
T1 construct: gene Kpna2; full-length His6-IMPα2 and IMPαΔIBB (residues 67–529, ARM repeat domain)
Assay: multi-wavelength analytical ultracentrifugation (co-sedimentation at […] nm), SYPRO orange thermal shift and CD; the IC50 is AlphaScreen inhibition of IMPα binding to IMPβ[…]

- IC50: 10.3 ± 0.8 µM
Structure (SMILES): O=C1Nc2ccc(I)cc2/C1=C/c1cc(Br)c(O)c(Br)c1 [GW5074]
